{"source": "patent US20070021355A1", "about": "“Antidepressants or foods and beverage for antidepression” (priority 2003, published 2007)", "format_in_all_cases": "in vivo", "key": {"[1]": {"test_system": "reserpine-administered mice", "assay": "Action on reserpine-induced temperature drop (body temperature)", "settings": "for Body temperature: male ddY mice, reserpine 2 mg/kg s.c., 100 mg/kg i.p. once per day for two days, mean ± standard error", "procedure": "(§1) Male ddY mice (4 weeks old) were subcutaneously administered reserpine (2 mg/kg) (Apoplon injection 1 mg, product of Daiichi Pharmaceutical Co., Ltd.). These mice were divided into two groups: one to which Compound 1 (100 mg/kg) was intraperitoneally administered once per day for two days (reserpine+Compound 1-administered group) and the other to which only a solvent was administered (reserpine+solvent-administered group). Reserpine and Compound 1 were administered after being dissolved in a physiological saline. The body temperature of the mice was measured 0.5, 1, 3 and 6 hours after the last administration. Separately, a solvent was administered to another group of mice without reserpine administration."}, "[2]": {"test_system": "reserpine-administered mice", "assay": "Action on reserpine-induced blepharoptosis", "settings": "for Blepharoptosis score: score 1 completely opened to 5 completely closed, reserpine 2 mg/kg s.c., 100 mg/kg i.p. once per day for two days, mean ± standard error", "procedure": "as §1, with “The level” for “The body temperature”, “of blepharoptosis” for “of the mice”, “was scored” for “was measured”, “last administration (score 1: completely opened, score 2: ¼ closed, score 3: ½ closed, score 4: ¾ closed, and score 5: completely closed).” for “last administration.”"}, "[3]": {"test_system": "reserpine-administered mice", "assay": "Action on reserpine-induced drop in the quantity of spontaneous motion", "procedure": "Male ddY mice (4 weeks old) were subcutaneously administered reserpine (2 mg/kg) (Apoplon injection 1 mg, product of Daiichi Pharmaceutical Co., Ltd.). These mice were divided into two groups: one to which Compound 1 (100 mg/kg) was intraperitoneally administered once per day for four days (reserpine+Compound 1-administered group) and the other to which only a solvent was administered (reserpine+solvent-administered group). Reserpine and Compound 1 were administered after being dissolved in a physiological saline. After the last administration, the mice were immediately put into breeding cages equipped with an infrared beam sensor (NS-AS01, Neuroscience, Inc.). After the last administration, the quantity of spontaneous motion in each 30-minute period was measured for 360 minutes with an infrared beam sensor device for measuring the quantity of spontaneous motion (AB system, Neuroscience, Inc.) and the measured values were summed up on a specific purpose computer via an interface (B060CT8H06, Neuroscience, Inc). Separately, another group of mice which was administered no reserpine was tested."}, "[4]": {"test_system": "mice fed with a vitamin B deficient food", "assay": "Action on depressive behavior induced by vitamin B deficient food (swimming patterns)", "procedure": "Male ddY mice (3 weeks old) were fed with a feed deficient in vitamin B1, vitamin B12 and folic acid for 8 days and then divided into two groups: one to which Compound 1 (100 mg/kg) was intraperitoneally administered once per day for 11 days (vitamin deficient food+Compound 1-administered group) and the other to which only a solvent was administered (vitamin deficient food+solvent-administered group). Compound 1 was administered after being dissolved in a physiological saline. Two hours after the last administration, the mice were put in a plastic cylindrical tub (diameter: 18 cm, height: 40 cm, water depth: 15 cm, water temperature: ca. 23° C.), followed by measurement of the time of their struggle, swimming and immobility in 10 minutes. Separately, another group of mice fed with a normal food was tested."}, "[5]": {"test_system": "5-HT and 5-HIAA in the hypothalamus of mice", "assay": "Action on the amount of amine in the brain (5-HT and 5-HIAA in the hypothalamus)", "settings": "100 mg/kg i.p.", "procedure": "Male ddY mice (4 weeks old) were intraperitoneally administered Compound 1 (100 mg/kg) (Compound 1-administered group) and their brains were excised 30 and 60 minutes after the administration to measure the amounts of serotonin (5-HT) and its metabolite 5-hydroxyindole-3-acetic acid (5-HIAA) in the hypothalamus. Compound 1 was administered after being dissolved in a physiological saline. Separately, another group of mice was administered only a solvent (solvent-administered group) and the amounts of 5-HT and 5-HIAA were measured in the same manner."}, "[6]": {"settings": "30 minute after last administration"}, "[7]": {"settings": "60 minute after last administration"}, "[8]": {"settings": "180 minute after last administration"}, "[9]": {"settings": "360 minute after last administration"}, "[10]": {"settings": "vitamin B deficient food, 100 mg/kg i.p. once per day for 11 days, two hours after last administration, time in 10 minutes, mean ± standard error"}, "[11]": {"settings": "male ddY mice, brains excised 30 and 60 minutes after administration, mean ± standard error"}}}
{"smiles": "NC(Cc1c([C@@H]2O[C@@H](CO)[C@H](O)[C@@H](O)[C@H]2O)[nH]c2ccccc12)C(=O)O", "note": "(stereo partly drawn) [Compound 1, 2-amino-3-[2-(α-L-mannopyranosyl]indol-3-yl]propionic acid]", "values": [{"measurement": "Effect on body temperature of reserpine-administered mice (in words)", "setting": "[1]; 100 mg/kg i.p.", "value": "significantly raised the body temperature"}, {"measurement": "Body temperature", "setting": "[1]; [6]", "value": "***36.1 ± 0.2 °C"}, {"measurement": "Body temperature", "setting": "[1]; [7]", "value": "** 35.4 ± 0.1 °C"}, {"measurement": "Body temperature", "setting": "[1]; [8]", "value": "** 35.2 ± 0.3 °C"}, {"measurement": "Body temperature", "setting": "[1]; [9]", "value": "** 34.9 ± 0.4 °C"}, {"measurement": "Effect on reserpine-induced blepharoptosis (in words)", "setting": "[2]; 100 mg/kg i.p.", "value": "showed the action to improve the condition"}, {"measurement": "Blepharoptosis score", "setting": "[2]; [6]", "value": "***3.0 ± 0.4"}, {"measurement": "Blepharoptosis score", "setting": "[2]; [7]", "value": "** 3.1 ± 0.3"}, {"measurement": "Blepharoptosis score", "setting": "[2]; [8]", "value": "** 3.3 ± 0.3"}, {"measurement": "Blepharoptosis score", "setting": "[2]; [9]", "value": "** 3.3 ± 0.2"}, {"measurement": "Effect on reserpine-induced drop in quantity of spontaneous motion (in words)", "setting": "[3]; 100 mg/kg i.p.", "value": "showed the action to increase the quantity of spontaneous motion"}, {"measurement": "Quantity of spontaneous motion in 360 minutes", "setting": "[3]; reserpine 2 mg/kg s.c., 100 mg/kg i.p. once per day for four days, infrared beam sensor, mean ± standard error", "value": "2464.2 ± 594.6", "unit": "count"}, {"measurement": "Effect on struggle, swimming and immobility time of mice on vitamin B deficient food (in words)", "setting": "[4]; 100 mg/kg i.p.", "value": "improved these actions"}, {"measurement": "Swimming pattern: Immobility", "setting": "[4]; [10]", "value": "***35.6 ± 15.4 second"}, {"measurement": "Swimming pattern: Struggle", "setting": "[4]; [10]", "value": "***2.4 ± 2.4 second"}, {"measurement": "Swimming pattern: Swimming", "setting": "[4]; [10]", "value": "***562.0 ± 14.2 second"}, {"measurement": "Effect on contents of 5-HT and 5-HIAA in the hypothalamus (in words)", "setting": "[5]", "value": "increased the contents of 5-HT and 5-HIAA"}, {"measurement": "Content of 5-HIAA in the hypothalamus", "setting": "[5]; [11]", "value": "374.1 ± 26.7", "unit": "ng/g wet weight"}, {"measurement": "Content of 5-HT in the hypothalamus", "setting": "[5]; [11]", "value": "815.0 ± 39.1", "unit": "ng/g wet weight"}]}
